# Numbers after ± are expanded uncertainties.
# Assay: excess molar enthalpy (molar enthalpy of mixing); xn = mol fraction of the nth substance listed
# Details: 308.15 K, 101 kPa, Liquid, Calvet calorimetry
Compound,excess molar enthalpy (x2 = 0.126) [kcal/mol],excess molar enthalpy (x2 = 0.2) [kcal/mol],excess molar enthalpy (x2 = 0.33) [kcal/mol],excess molar enthalpy (x2 = 0.435) [kcal/mol],excess molar enthalpy (x2 = 0.499) [kcal/mol],excess molar enthalpy (x2 = 0.601) [kcal/mol],excess molar enthalpy (x2 = 0.701) [kcal/mol],excess molar enthalpy (x2 = 0.802) [kcal/mol],excess molar enthalpy (x2 = 0.901) [kcal/mol],excess molar enthalpy (x2 = 0.113) [kcal/mol],excess molar enthalpy (x2 = 0.297) [kcal/mol],excess molar enthalpy (x2 = 0.401) [kcal/mol],excess molar enthalpy (x2 = 0.515) [kcal/mol],excess molar enthalpy (x2 = 0.6) [kcal/mol],excess molar enthalpy (x2 = 0.703) [kcal/mol],excess molar enthalpy (x2 = 0.825) [kcal/mol],excess molar enthalpy (x2 = 0.9) [kcal/mol]
C1CCNCC1 [piperidine] + C1COCCN1,0.0251 ± 0.000956,0.0375 ± 0.0012,0.0531 ± 0.00167,0.0605 ± 0.00191,0.0631 ± 0.00191,0.0626 ± 0.00191,0.0564 ± 0.00167,0.0447 ± 0.00143,0.0261 ± 0.000956,–,–,–,–,–,–,–,–
C1CCNCC1 [piperidine] + C1COCCO1,–,0.131 ± 0.00406,–,–,–,–,–,–,–,0.0853 ± 0.00263,0.167 ± 0.00526,0.188 ± 0.00574,0.195 ± 0.00598,0.186 ± 0.00574,0.159 ± 0.00502,0.108 ± 0.00335,0.0655 ± 0.00215
